Measurements published in patent US11319322B2, “Substituted aryl ether compound, preparation method thereof, pharmaceutical composition and use thereof” (Xiamen University, priority 2017, dated 2022).

Legend:
Format in all cases: cell-based
CCDC6-RET-BaF3 = biological target: T1, CCDC6-RET-BaF3 (Homo sapiens, UniProt P07949); assay: Growth inhibition of CCDC6-RET-BaF3 cells stably transfected with kinase (MTS); conditions: 48 h, read-out: CCDC6-RET (IC50/nM)
T1 construct: fused on or other part: Q16204 (Coiled-coil domain-containing protein 6)
Method in brief: (§1)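 BaF3 cells stably expressing CCDC6-RET or KIF5B-RET, or parental BaF3, 2×10^4 cells/well, treated 48 h at 37 °C with 8-point 1:3 dilutions from 10 μM (0.1% DMSO). MTS/PES added 1–4 h, OD490 read; inhibition versus DMSO and blank gave IC50.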

KIF5B-RET-BaF3 = biological target: T2, KIF5B-RET-BaF3 (Homo sapiens, UniProt P07949); assay: Growth inhibition of KIF5B-RET-BaF3 cells stably transfected with kinase (MTS); conditions: 48 h, read-out: KIF5B-RET (IC50/nM)
T2 construct: fused on or other part: P33176 (Kinesin-1 heavy chain)
Method in brief: as §1

wild-type BaF3 = assay: Growth inhibition of wild-type BaF3 cells, broad-spectrum toxicity (MTS); conditions: Mus musculus, 48 h, read-out: WT Ba/F3 (IC50/nM)
Procedure: Growth inhibitory activity of compounds on cell lines stably transfected with kinase
The activity of compounds against kinase RET is evaluated by their effect of inhibiting growth of cell lines stably transfected with kinase CCDC6-RET-BaF3, KIF5B-RET-BaF3, and wild-type BaF3 (Proc. Natl. Acad. Sci. USA., 2006, 103, 3153-8.). The growth of the cell lines stably transfected with kinase CCDC6-RET-BaF3, KIF5B-RET-BaF3 depends on their kinase activity. If a compound can inhibit the activity of the kinase RET per se or the activity of the RET signaling pathway, the compound can inhibit the growth of BaF3 cells stably transfected with kinase. […] Therefore, a larger ratio between IC50 of a compound to wild-type BaF3 and IC50 of the compound to the cell lines stably transfected with kinase CCDC6-RET-BaF3, KIF5B-RET-BaF3 indicates better targeting.
The specific test method is given as follows:
1) Medium: DMEM (Dulbecco's modified eagle medium) or RPMI 1640 (containing 10% fetal bovine serum, 100 μg/mL ampicillin, 100 μg/mL streptomycin).
2) Reagents: MTS reaction solution (containing 2 mg/mL of MTS [3-(4,5-dimethylthiazol-2-yl)-5-(3-carboxymethoxyphenyl)-2-(4-sulfophenyl)-2H-tetrazolium, inner Salt]; 100 μg/mL PES (phenazine […])).
3) Compound test: cells stably transfected with kinase (CCDC6-RET-BaF3, KIF5B-RET-BaF3) or wild-type BaF3 cells (2×10^4 cells/well) were incubated into a 96-well culture plate, the volume of cell culture fluid was 90 μL, and then 10 μL of the compound at each gradient concentration was added (the highest concentration was 10 μM, which was diluted stepwise by ⅓, and 8 concentration points were set in total; the system contained 0.1% DMSO (dimethyl sulfoxide)). The cell plate with uniformly mixed compound was cultured in a cell culture incubator (37° C.; 5% CO2) for 48 h, then 20 μL of MTS reaction solution was added, uniformly mixed and incubated in the cell culture incubator (37° C.; 5% CO2) for 1-4 hr, OD values at 490 nm were measured by a microplate reader (VARIOSKAN FLASH, Thermo). Three parallels were set in each group of experiments, with 0.1% (a final concentration) DMSO as a negative control, and a medium without cells or compounds as a blank control. The cell growth inhibition rate was calculated by the following formula: Cell growth inhibition rate %=1−(ODexperimental group−ODblank group)/(ODnegative group−ODblank group)×100%
4) IC50 calculation: The semi-inhibitory concentration of the compound acting on cell growth was calculated using GradPad Prism 5 software according to the measured cell growth inhibition rate.

T2 sequence (P07949 whole entry, change not shown, the tested form may be a part): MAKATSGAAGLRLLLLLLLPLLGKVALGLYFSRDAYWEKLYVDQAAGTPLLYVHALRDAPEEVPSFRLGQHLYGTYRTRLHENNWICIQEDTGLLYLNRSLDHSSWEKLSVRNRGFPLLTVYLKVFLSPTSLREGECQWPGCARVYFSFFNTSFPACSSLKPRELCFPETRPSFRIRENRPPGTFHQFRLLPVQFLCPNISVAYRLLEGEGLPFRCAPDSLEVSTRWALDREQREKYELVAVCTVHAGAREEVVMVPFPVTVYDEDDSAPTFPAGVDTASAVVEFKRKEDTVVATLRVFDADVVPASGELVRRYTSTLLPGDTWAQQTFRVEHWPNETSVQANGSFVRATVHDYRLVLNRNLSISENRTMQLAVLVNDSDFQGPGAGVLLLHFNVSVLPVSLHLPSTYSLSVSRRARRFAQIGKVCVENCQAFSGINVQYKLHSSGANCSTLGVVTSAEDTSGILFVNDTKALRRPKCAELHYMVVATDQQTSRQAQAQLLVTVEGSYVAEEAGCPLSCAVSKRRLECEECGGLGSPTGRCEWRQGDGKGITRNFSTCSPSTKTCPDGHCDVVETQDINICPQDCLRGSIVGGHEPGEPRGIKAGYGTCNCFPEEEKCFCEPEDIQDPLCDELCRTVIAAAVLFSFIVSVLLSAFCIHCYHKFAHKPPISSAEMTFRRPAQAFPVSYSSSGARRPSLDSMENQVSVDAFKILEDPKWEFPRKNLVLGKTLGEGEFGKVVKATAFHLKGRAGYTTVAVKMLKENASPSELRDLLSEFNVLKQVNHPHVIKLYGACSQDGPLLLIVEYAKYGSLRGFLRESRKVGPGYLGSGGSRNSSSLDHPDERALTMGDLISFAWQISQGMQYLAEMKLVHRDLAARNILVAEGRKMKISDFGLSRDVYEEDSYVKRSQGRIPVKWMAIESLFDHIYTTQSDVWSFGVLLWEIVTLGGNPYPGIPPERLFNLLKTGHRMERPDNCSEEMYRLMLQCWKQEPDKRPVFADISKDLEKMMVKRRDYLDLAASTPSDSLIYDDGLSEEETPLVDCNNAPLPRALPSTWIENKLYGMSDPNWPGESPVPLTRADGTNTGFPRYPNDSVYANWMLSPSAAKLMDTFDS
T1 sequence (P07949 whole entry, change not shown, the tested form may be a part): as above

SMILES	GI50 (CCDC6-RET-BaF3)	GI50 (KIF5B-RET-BaF3)	IC50 (wild-type BaF3)
Cc1ccc(C(=O)Nc2ccc(CN3CCN(C)CC3)c(C(F)(F)F)c2)cc1Oc1ncnc2ccn(C)c12 [III-m-22]	597 nM	854 nM	> 10000 nM
CN1CCN(Cc2cc(NC(=O)c3cccc(Oc4nc(-c5ccncc5)nc5cc[nH]c45)c3)cc(C(F)(F)F)c2)CC1 [III-p-2]	449 nM	672 nM	> 10000 nM
Cc1ccc(Oc2nc(-c3cccnc3)nc3[nH]ncc23)cc1NC(=O)c1ccc(CN2CCN(C)CC2)c(C(F)(F)F)c1 [II-j-5]	2370 nM	3890 nM	7400 nM
CN1CCN(Cc2ccc(C(=O)Nc3cc(Oc4nc(-c5ccncc5)nc5ccn(C)c45)ccc3Cl)cc2C(F)(F)F)CC1 [III-k-4]	11.2 nM	70.7 nM	1620 nM
Cc1ccc(Oc2nc(-c3ccncc3)nc3ccn(C)c23)cc1C(=O)Nc1cc(CN2CCN(C)CC2)cc(C(F)(F)F)c1 [III-r-4]	187 nM	325 nM	1380 nM
CN1CCN(Cc2ccc(NC(=O)c3cccc(Oc4cc(-c5ccncc5)nc5[nH]ccc45)c3)cc2C(F)(F)F)CC1 [V-I-2]	169 nM	169 nM	3400 nM
Cc1ccc(C(=O)Nc2ccc(CN3CCN(C)CC3)c(C(F)(F)F)c2)cc1Oc1nc(-c2cccc(O)c2)nc2ccn(C)c12 [III-m-15]	2960 nM	3930 nM	7210 nM
Cc1ccc(C(=O)Nc2cc(CN3CCN(C)CC3)cc(C(F)(F)F)c2)cc1Oc1nc(-c2ccncc2)nc2cc[nH]c12 [III-q-2]	351 nM	594 nM	843 nM
Cc1ccc(Oc2nc(-c3ccccc3)nc3cc[nH]c23)cc1NC(=O)c1ccc(CN2CCN(C)CC2)c(C(F)(F)F)c1 [III-j-3]	2480 nM	2350 nM	3780 nM
CN1CCN(Cc2ccc(NC(=O)c3cc(Oc4nc(-c5ccncc5)nc5cc[nH]c45)ccc3Cl)cc2C(F)(F)F)CC1 [III-o-2]	17.4 nM	13.4 nM	1290 nM
Cc1ccc(Oc2nc(-c3ccoc3)nc3ccn(C)c23)cc1NC(=O)c1ccc(CN2CCN(C)CC2)c(C(F)(F)F)c1 [III-j-10]	234 nM	428 nM	1460 nM
CNc1nc(Oc2cc(C(=O)Nc3ccc(CN4CCN(C)CC4)c(C(F)(F)F)c3)ccc2C)c2c(ccn2C)n1 [III-m-19]	2510 nM	3270 nM	4020 nM
Cc1ccc(C(=O)Nc2ccc(CN3CCN(C)CC3)c(C(F)(F)F)c2)cc1Oc1nc(-c2ccsc2)nc2cc[nH]c12 [III-m-27]	1400 nM	1500 nM	34500 nM
Cc1ccc(Oc2nc(-c3ccncc3)nc3cc[nH]c23)cc1C(=O)Nc1cc(CN2CCN(C)CC2)cc(C(F)(F)F)c1 [III-r-2]	386 nM	535 nM	4130 nM
CN1CCN(Cc2ccc(C(=O)Nc3cc(Oc4nc(-c5cccnc5)nc5ccn(C)c45)ccc3Cl)cc2C(F)(F)F)CC1 [III-k-3]	1250 nM	1190 nM	1170 nM
Cc1ccc(C(=O)Nc2cccc(C(F)(F)F)c2)cc1Oc1nc(-c2ccncc2)nc2c1cnn2C [II-e-2]	1430 nM	1770 nM	> 10000 nM
CN1CCN(Cc2cc(NC(=O)c3cccc(Oc4nc(-c5ccncc5)nc5ccn(C)c45)c3)cc(C(F)(F)F)c2)CC1 [III-p-4]	3230 nM	3650 nM	> 10000 nM
Cc1ccc(Oc2nc(-c3ccc(Cl)cc3)nc3ccn(C)c23)cc1NC(=O)c1ccc(CN2CCN(C)CC2)c(C(F)(F)F)c1 [III-j-12]	2660 nM	2970 nM	2150 nM
Cc1ccc(C(=O)Nc2ccc(CN3CCN(C)CC3)c(C(F)(F)F)c2)cc1Oc1nc(-c2cccc(Cl)c2)nc2cc[nH]c12 [III-m-5]	3760 nM	4040 nM	3920 nM

SMILES	GI50 (CCDC6-RET-BaF3)	GI50 (KIF5B-RET-BaF3)	IC50 (wild-type BaF3)
CN1CCN(Cc2ccc(C(=O)Nc3cccc(Oc4nc(-c5ccncc5)nc5ccsc45)c3)cc2C(F)(F)F)CC1 [VI-h-2]	561 nM	493 nM	3900 nM
Cc1ccc(C(=O)Nc2cc(CN3CCN(C)CC3)cc(C(F)(F)F)c2)cc1Oc1nc(-c2cccnc2)nc2ccsc12 [VI-q-1]	3570 nM	3430 nM	4360 nM
CN1CCN(Cc2cc(NC(=O)c3cccc(Oc4nc(-c5cccnc5)nc5cc[nH]c45)c3)cc(C(F)(F)F)c2)CC1 [III-p-1]	4400 nM	2920 nM	3550 nM
Cc1ccc(Oc2nc(-c3ccsc3)nc3c2ncn3C)cc1NC(=O)c1ccc(CN2CCN(C)CC2)c(C(F)(F)F)c1 [I-j-7]	1030 nM	1440 nM	2410 nM
CN1CCN(Cc2ccc(NC(=O)c3cccc(Oc4nc(-c5cccnc5)nc5c4ncn5C)c3)cc2C(F)(F)F)CC1 [I-l-2]	3610 nM	–	1360 nM
CN1CCN(Cc2ccc(NC(=O)c3cc(Oc4nc(-c5ccoc5)nc5c4ncn5C)ccc3Cl)cc2C(F)(F)F)CC1 [I-o-10]	1370 nM	1910 nM	–
Cc1ccc(-c2nc(Oc3cc(C(=O)Nc4ccc(CN5CCN(C)CC5)c(C(F)(F)F)c4)ccc3C)c3cnn(C)c3n2)cc1 [II-m-4]	848 nM	152 nM	–
Cc1ccc(C(=O)Nc2ccc(CN3CCN(C)CC3)c(C(F)(F)F)c2)cc1Oc1ncnc2c1cnn2C [II-m-19]	54.9 nM	124 nM	–
CN1CCN(Cc2ccc(NC(=O)c3cc(Oc4nc(-c5ccsc5)nc5nn(C)cc45)ccc3Cl)cc2C(F)(F)F)CC1 [IV-o-11]	3030 nM	1620 nM	–
CN1CCN(Cc2ccc(C(=O)Nc3cccc(Oc4nc(-c5cccnc5)nc5cc[nH]c45)c3)cc2C(F)(F)F)CC1 [III-h-1]	2810 nM	1540 nM	–
Cc1ccc(Oc2nc(-c3ccc(N)cc3)nc3nn(C)cc23)cc1C(=O)Nc1ccc(CN2CCN(C)CC2)c(C(F)(F)F)c1 [IV-n-9]	1830 nM	1570 nM	–
CN1CCN(Cc2ccc(NC(=O)c3cc(Oc4nc(-c5ccncc5)nc5c4ncn5C)ccc3Cl)cc2C(F)(F)F)CC1 [I-o-2]	20.6 nM	3.15 nM	–
CN1CCN(Cc2ccc(NC(=O)c3cc(Oc4nc(-c5cccc(N)c5)nc5nn(C)cc45)ccc3Cl)cc2C(F)(F)F)CC1 [IV-o-8]	172 nM	152 nM	–
CN1CCN(Cc2ccc(NC(=O)c3cccc(Oc4nc(-c5ccncc5)nc5ccn(C)c45)c3)cc2C(F)(F)F)CC1 [III-l-4]	18.7 nM	11.3 nM	–
Cc1ccc(C(=O)Nc2ccc(CN3CCN(C)CC3)c(C(F)(F)F)c2)cc1Oc1nc(N2CCOCC2)nc2c1cnn2C [II-m-15]	111 nM	18 nM	–
CN1CCN(Cc2ccc(NC(=O)c3cc(Oc4nc(-c5ccccc5)nc5nn(C)cc45)ccc3Cl)cc2C(F)(F)F)CC1 [IV-o-3]	4310 nM	4180 nM	–
CN1CCN(Cc2ccc(NC(=O)c3cc(Oc4nc(-c5ccc(N)cc5)nc5nn(C)cc45)ccc3Cl)cc2C(F)(F)F)CC1 [IV-o-9]	4810 nM	4360 nM	–
Cc1ccc(Oc2nc(-c3ccncc3)nc3ccn(C)c23)cc1C(=O)Nc1ccc(CN2CCN(C)CC2)c(C(F)(F)F)c1 [III-n-4]	43.1 nM	17.2 nM	–
Cc1ccc(C(=O)Nc2ccc(CN3CCN(C)CC3)c(C(F)(F)F)c2)cc1Oc1nc(N(C)C)nc2c1cnn2C [II-m-18]	257 nM	34.3 nM	–
